Laboratory results: PubChem BioAssay AID248 (DTP/NCI, 2004)
“And” between values parts separate entries of the source, which are not always exact repeats. Equal values may be shown once. Toxic doses and inconclusive results are not listed. Rule as the data show it: active = T/C of 150% or more; inactive = T/C below 125%.

Tested on: L1210 leukemia ip in BDF1 mice, survival T/C
Assay: NCI In Vivo Anticancer Drug Screen. Data for tumor model L1210 Leukemia (intraperitoneal) in B6D2F1 (BDF1) mice
Conditions: endpoint: mean survival time, higher = longer survival
Method in brief: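 Tumor was transplanted into mice, which were then dosed with test compound or vehicle alone. Survival was recorded for each group, and the treated figure was expressed relative to the control figure.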

[1] = dose: 100.0 mg/kg/injection, schedule: Q04DX003 (ip), vehicle: saline
[2] = dose: 200.0 mg/kg/injection, schedule: Q04DX003 (ip), vehicle: saline
[3] = dose: 400.0 mg/kg/injection, schedule: Q04DX003 (ip), vehicle: saline
[4] = dose: 100.0 mg/kg/injection, schedule: Q01DX009 (ip), vehicle: saline with Tween-80
[5] = dose: 200.0 mg/kg/injection, schedule: Q01DX009 (ip), vehicle: saline with Tween-80
[6] = dose: 100.0 mg/kg/injection, schedule: Q01DX009 (ip), vehicle: Klucel (hydroxypropylcellulose) (HPC)
[7] = dose: 100.0 mg/kg/injection, schedule: Q04DX003 (ip), vehicle: Klucel (hydroxypropylcellulose) (HPC)
[8] = dose: 200.0 mg/kg/injection, schedule: Q01DX009 (ip), vehicle: Klucel (hydroxypropylcellulose) (HPC)
[9] = dose: 200.0 mg/kg/injection, schedule: Q04DX003 (ip), vehicle: Klucel (hydroxypropylcellulose) (HPC)
[10] = dose: 400.0 mg/kg/injection, schedule: Q01DX009 (ip), vehicle: Klucel (hydroxypropylcellulose) (HPC)
[11] = dose: 400.0 mg/kg/injection, schedule: Q04DX003 (ip), vehicle: Klucel (hydroxypropylcellulose) (HPC)
[12] = dose: 100.0 mg/kg/injection, schedule: Q04DX003 (ip), vehicle: saline with Tween-80
[13] = dose: 200.0 mg/kg/injection, schedule: Q04DX003 (ip), vehicle: saline with Tween-80
[14] = dose: 400.0 mg/kg/injection, schedule: Q04DX003 (ip), vehicle: saline with Tween-80
[15] = dose: 100.0 mg/kg/injection, schedule: Q04DX002 (ip), vehicle: Klucel (hydroxypropylcellulose) (HPC)
[16] = dose: 200.0 mg/kg/injection, schedule: Q04DX002 (ip), vehicle: Klucel (hydroxypropylcellulose) (HPC)
[17] = dose: 400.0 mg/kg/injection, schedule: Q04DX002 (ip), vehicle: Klucel (hydroxypropylcellulose) (HPC)
[18] = dose: 100.0 mg/kg/injection, schedule: Q01DX001 (ip), vehicle: saline
[19] = dose: 200.0 mg/kg/injection, schedule: Q01DX001 (ip), vehicle: saline
[20] = dose: 400.0 mg/kg/injection, schedule: Q01DX001 (ip), vehicle: saline

Measured: T/C

C[N+](C)(C)Cc1ccc([N+](=O)[O-])cc1
inactive: dose: 2.2 mg/kg/injection, schedule: Q01DX001 (ip), vehicle: saline 101 % of control | dose: 3.3 mg/kg/injection, schedule: Q01DX001 (ip), vehicle: saline 97 % of control | dose: 5.0 mg/kg/injection, schedule: Q01DX001 (ip), vehicle: saline 94 % of control | dose: 7.5 mg/kg/injection, schedule: Q01DX001 (ip), vehicle: saline 101 % of control

O=C1CC(N2C(=O)C3C4C=CC(CC4)C3C2=O)C(=O)N1 (centres undefined)
inactive: [1] 97 % of control | [2] 97 % of control | [3] 97 % of control

Cc1cc(C)c([I+]c2c(C)cc(C)cc2C)c(C)c1
inactive: dose: 0.12 mg/kg/injection, schedule: Q01DX009 (ip), vehicle: saline 102 % of control | dose: 0.25 mg/kg/injection, schedule: Q01DX009 (ip), vehicle: saline 111 % of control | dose: 0.5 mg/kg/injection, schedule: Q01DX001 (ip), vehicle: saline 90 % of control | dose: 0.5 mg/kg/injection, schedule: Q01DX009 (ip), vehicle: saline 122 % of control | dose: 0.5 mg/kg/injection, schedule: Q01DX015 (ip), vehicle: saline 100 % of control | dose: 0.5 mg/kg/injection, schedule: Q04DX003 (ip), vehicle: acetone 111 % of control | dose: 1.0 mg/kg/injection, schedule: Q01DX001 (ip), vehicle: saline 101 % of control | dose: 1.0 mg/kg/injection, schedule: Q01DX015 (ip), vehicle: saline 96 % of control | dose: 2.0 mg/kg/injection, schedule: Q01DX001 (ip), vehicle: saline 92 % of control | dose: 2.0 mg/kg/injection, schedule: Q01DX015 (ip), vehicle: saline 102 % of control | dose: 4.0 mg/kg/injection, schedule: Q01DX015 (ip), vehicle: saline 103 % of control

CCOC(=N)CCCl
inactive: [4] 94 % of control | [5] 102 % of control | dose: 400.0 mg/kg/injection, schedule: Q01DX009 (ip), vehicle: saline with Tween-80 96 % of control

COc1cccc2c1CCC1=C2CC2C(=O)C1CCC2(C)O (centres undefined)
inactive: dose: 100.0 mg/kg/injection, schedule: Q01DX009 (ip), vehicle: saline 109 % of control | [1] 94 % of control | dose: 200.0 mg/kg/injection, schedule: Q01DX009 (ip), vehicle: saline 108 % of control | [2] 119 % of control | dose: 400.0 mg/kg/injection, schedule: Q01DX009 (ip), vehicle: saline 101 % of control | [3] 110 % of control

C/C(=N\O)C1(O)CCCCC1
inactive: [6] 98 % of control | [7] 103 % of control | [8] 93 % of control | [9] 101 % of control | [10] 96 % of control | [11] 108 % of control

CNC(=O)C1C2C=CC(C2)C1C(=O)NC (centres undefined)
inactive: [12] 93 % of control and 100 % of control and 87 % of control | [13] 96 % of control and 100 % of control and 106 % of control | [14] 93 % of control and 100 % of control (2×)

C#CCSC(=S)NNc1ccccc1
inactive: [4] 95 % of control | [12] 101 % of control | [5] 97 % of control | [13] 97 % of control | [14] 93 % of control

COc1cc(NC(=O)CC(C)=O)cc2c(C)cc(=O)n(C)c12
inactive: [6] 101 % of control | [7] 106 % of control | [8] 98 % of control | [9] 89 % of control | [10] 91 % of control | [11] 94 % of control

CCOC(C(=O)OC1CCN(C)CC1)(c1ccccc1)c1ccccc1
inactive: dose: 25.0 mg/kg/injection, schedule: Q04DX003 (ip), vehicle: saline 97 % of control | dose: 50.0 mg/kg/injection, schedule: Q04DX003 (ip), vehicle: saline 96 % of control | [12] 93 % of control | [1] 97 % of control

CCC(CC)OC(=O)Nc1cccc(OC(=O)NC)c1
inactive: [12] 104 % of control | [13] 95 % of control

CCCCCS(=O)(=O)N1CCCC1
inactive: [15] 107 % of control | [16] 103 % of control | [17] 111 % of control

Cc1ccccc1Sc1ccccc1[N+](=O)[O-]
inactive: [7] 95 % of control | [9] 106 % of control | [11] 103 % of control

O=C(C1C(c2ccccc2)C1c1ccccc1)N(CCCl)Cc1ccccc1 (centres undefined)
inactive: dose: 25.0 mg/kg/injection, schedule: Q04DX002 (ip), vehicle: Klucel (hydroxypropylcellulose) (HPC) 97 % of control | dose: 50.0 mg/kg/injection, schedule: Q04DX002 (ip), vehicle: Klucel (hydroxypropylcellulose) (HPC) 87 % of control | [15] 100 % of control

CCCCC(=O)N/N=C\c1ccc(OCc2ccccc2)cc1
inactive: [18] 87 % of control | [19] 92 % of control | [20] 87 % of control

COc1c(C)c(C)c(OC)c(C(C)O)c1C (centres undefined)
inactive: dose: 100.0 mg/kg/injection, schedule: Q04DX003 (ip), vehicle: other 92 % of control | dose: 200.0 mg/kg/injection, schedule: Q04DX003 (ip), vehicle: other 100 % of control | dose: 400.0 mg/kg/injection, schedule: Q04DX003 (ip), vehicle: other 97 % of control

CCN(CC)c1ccc(/C=N\N(C)C)cc1
inactive: dose: 50.0 mg/kg/injection, schedule: Q01DX009 (ip), vehicle: Klucel (hydroxypropylcellulose) (HPC) 97 % of control | [6] 101 % of control | [8] 106 % of control

O=C(O)c1[nH]c2c(=O)[nH]c(=O)[nH]c2c1Br
inactive: [18] 102 % of control | [19] 100 % of control | [20] 100 % of control

O=C(O)CC(C(=O)O)c1ccccc1 (centres undefined)
inactive: [12] 88 % of control | [13] 103 % of control | [14] 106 % of control

COC(=O)C1C(c2ccc(-c3ccccc3)cc2)N1C(C)C (centres undefined)
inactive: [7] 101 % of control | [9] 95 % of control | [11] 98 % of control

Cc1ccc(C)c2c3c(oc12)CCCC3
inactive: [18] 91 % of control | [19] 94 % of control | [20] 105 % of control

ClCCC1OCCCO1
inactive: dose: 50.0 mg/kg/injection, schedule: Q01DX009 (ip), vehicle: saline + alcohol 96 % of control | dose: 100.0 mg/kg/injection, schedule: Q01DX009 (ip), vehicle: saline + alcohol 100 % of control | dose: 200.0 mg/kg/injection, schedule: Q01DX009 (ip), vehicle: saline + alcohol 96 % of control

O=C(OCC1OC(n2c(=O)[nH]c(=O)c3ncsc32)C(OC(=O)c2ccccc2)C1OC(=O)c1ccccc1)c1ccccc1 (centres undefined)
inactive: dose: 100.0 mg/kg/injection, schedule: Q01DX005 (ip), vehicle: saline 95 % of control | dose: 200.0 mg/kg/injection, schedule: Q01DX005 (ip), vehicle: saline 101 % of control

O=C(N=Nc1c(O)[nH]c2ccc(Br)cc12)c1ccco1
inactive: [15] 111 % of control | [16] 95 % of control | [17] 95 % of control

O=C(Nc1ccc(OP(=O)(O)O)cc1)c1ccc(C(=O)Nc2ccc(OP(=O)(O)O)cc2)cc1
inactive: dose: 2.5 mg/kg/injection, schedule: Q01DX Z (ip), vehicle: water 96 % of control | dose: 5.0 mg/kg/injection, schedule: Q01DX Z (ip), vehicle: water 104 % of control | dose: 7.5 mg/kg/injection, schedule: Q01DX Z (ip), vehicle: water 93 % of control | dose: 10.0 mg/kg/injection, schedule: Q01DX Z (ip), vehicle: water 93 % of control | dose: 18.7 mg/kg/injection, schedule: Q01DX Z (ip), vehicle: water 104 % of control

C[C@H]1/C(=C/C(=O)OCCN(C)C)CC[C@H]2[C@H]1C(=O)C[C@H]1C(C)(C)[C@@H](O)CC[C@]21C
inactive: dose: 5.0 mg/kg/injection, schedule: Q01DX001 (ip), vehicle: other 106 % of control | dose: 10.0 mg/kg/injection, schedule: Q01DX001 (ip), vehicle: other 97 % of control | dose: 20.0 mg/kg/injection, schedule: Q01DX001 (ip), vehicle: other 97 % of control
